# From patent US20160106102A1, “KNOWN AND NEW HETEROCYCLIC COMPOUNDS AS PEST CONTROL AGENTS” (BAYER CROPSCIENCE AKTIENGESELLSCHAFT, priority 2013, published 2016)
# Read-outs that look alike come from different tables or passages of the source.
# Tests used:
# Myzus persicae [1] = assay: Myzus persicae - spray test; type: in vivo; details: application rate of 500 g/ha, after 6 days, sprayed Chinese cabbage leaf discs infested by all stages, 100% = all aphids killed; for pest or weed control at 500 g/ha: Myzus persicae, foliar, 144 h, read-out: efficacy in %
# Description: Myzus persicae—spray test Solvent: 78 parts by weight of acetone • • 1.5 parts by weight of dimethylformamide Emulsifier: 0.5 part by weight of alkylaryl polyglycol ether To produce an appropriate active ingredient formulation, 1 part by weight of active ingredient is mixed with the specified amounts of solvent and emulsifier, and the concentrate is diluted to the desired concentration with emulsifier-containing water. Discs of Chinese cabbage leaves (Brassica pekinensis) infested by all stages of the green peach aphid (Myzus persicae) are sprayed with an active ingredient formulation of the desired concentration. After 6 days, the efficacy in % is determined. 100% means that all the aphids have been killed; 0% means that no aphids have been killed.
# Myzus persicae [2] = assay: Myzus persicae - sachet test; type: in vivo; details: 100% = all animals killed; for pest or weed control at 6 ppm / pest or weed control at 30 ppm: Myzus persicae, read-out: efficacy (kill in %)
# In short: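 Active ingredient dissolved with 2% N-methylpyrrolidone and 2% diacetone alcohol, diluted in water, then pipetted into nutrient medium. Plate sealed and paired with a plate carrying green peach aphids. Kill in % scored after the set time (100% = all dead, 0% = none dead).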
# [3] = log P determination by LC-MS in the acidic range; type: physicochemical; details: for log P (acid): LC-MS in the acidic range
# Description: The LC-MS determination in the acidic range is effected at pH 2.7 using 0.1% aqueous formic acid and acetonitrile (contains 0.1% formic acid) as eluents, linear gradient from 10% acetonitrile to 95% acetonitrile. Alternatively, the determination is effected in the acidic range at pH 2.3 using 0.1% aqueous phosphoric acid and acetonitrile as eluents; linear gradient from 10% acetonitrile to 95% acetonitrile.
# [4] = application rate of 6 ppm in nutrient medium
# [5] = application rate of 30 ppm in nutrient medium
# [6] = pH 2.7, LC-MS in the acidic range, read-out: log P (acid)
# [7] = pH 2.7, values given in the synthesis examples and NMR lists, read-out: HPLC-MS: log P
Structure (SMILES),efficacy in % (Myzus persicae [1]) [%],efficacy (kill in %) (Myzus persicae [2]; [4]) [%],efficacy (kill in %) (Myzus persicae [2]; [5]) [%],log P (acid) [3],further results
Cc1cc(NC(=O)c2cccnc2)nn1-c1ccc(F)cc1 [Compound I-1-203],90,80,100,1.79,
COc1nn(Cn2nc(NC(=O)c3cccnc3)cc2C)c(=O)n1C1CC1 [Compound I-1-144],90,100,100,1.27,
"CCS(=O)(=O)Cn1nc(NC(=O)c2cccnc2)cc1C [Compound I-1-246, N-{1-[(Ethylsulphonyl)methyl]-5-methyl-1H-pyrazol-3-yl}nicotinamide]",,,,,"pest or weed control at 500 g/ha (Myzus persicae [1]): 100%; pest or weed control at 6 ppm (Myzus persicae [2]; [4]): 100%; pest or weed control at 30 ppm (Myzus persicae [2]; [5]): 100%; chromatographic logP [3, 6]: 0.83; chromatographic logP [3, 7]: 0.83"
Cc1nnc(Cn2nc(NC(=O)c3cccnc3)cc2C)s1 [Compound I-1-296],90,100,100,0.83,
Cc1cc(NC(=O)c2cccnc2)nn1Cc1cc(C(=O)N(C)C)no1 [Compound I-1-298],90,100,100,1.09,
Cc1cc(NC(=O)c2cccnc2)nn1C(=O)NC(C)c1ncccn1 (stereo not shown) [Compound I-1-333],90,100,100,1.29,
CCOC(CNC(=O)n1nc(NC(=O)c2cccnc2)cc1C)OCC [Compound I-1-170],90,100,100,1.88,
Cc1cc(NC(=O)c2cccnc2)nn1C(=O)NC(C)C [Compound I-1-287],90,100,100,1.46,
O=C(Nc1ccn(-c2ccccn2)n1)c1cccnc1 [Compound I-1-52],90,100,100,1.32,
Cc1cc(C)nc(CNC(=O)n2nc(NC(=O)c3cccnc3)cc2C)n1 [Compound I-1-338],90,100,100,1.43,
Cc1cc(NC(=O)c2cccnc2)nn1C(=O)Oc1ccccc1 [Compound I-1-233],90,100,100,2,
Cc1cc(NC(=O)c2cccnc2)nn1CC(F)(F)F [Compound I-1-133],90,100,100,1.32,
Cc1cc(NC(=O)c2cccnc2)nn1CC#N [Compound I-1-11],80,100,100,0.7,
Cc1cc(NC(=S)c2cccnc2)nn1Cc1ncccn1 [Compound I-1-344],100,100,100,1.24,
Cc1cc(NC(=O)c2cccnc2)nn1-c1ncc(C(F)(F)F)cc1Cl [Compound I-1-44],100,100,100,2.2,
"Cc1cc(NC(=O)c2cccnc2)nn1C(=O)OC(C)(C)C [Compound I-1-18, tert-Butyl 5-methyl-3-[(pyridin-3-ylcarbonyl)amino]-1H-pyrazole-1-carboxylate]",,,,,"pest or weed control at 500 g/ha (Myzus persicae [1]): 100%; pest or weed control at 6 ppm (Myzus persicae [2]; [4]): 100%; pest or weed control at 30 ppm (Myzus persicae [2]; [5]): 100%; chromatographic logP [3, 6]: 2.04; chromatographic logP [3, 7]: 2.04"
Cc1cc(NC(=O)c2cccnc2)nn1CCC(F)(F)F [Compound I-1-188],90,100,100,1.45,

Structure (SMILES),efficacy in % (Myzus persicae [1]) [%],efficacy (kill in %) (Myzus persicae [2]; [4]) [%],efficacy (kill in %) (Myzus persicae [2]; [5]) [%],log P (acid) [3],further results
Cc1cc(NC(=O)c2cccnc2)nn1CC1OCCO1 [Compound I-1-180],100,80,100,0.81,
Cc1cc(NC(=O)c2cccnc2)nn1C(C)C [Compound I-1-49],80,100,100,1.4,
Cc1c(NC(=O)c2cccnc2)nn(Cc2ncccn2)c1C [Compound I-1-123],90,100,100,0.76,
Cc1cc(NC(=O)c2cccnc2)nn1Cc1ccccc1F [Compound I-1-64],90,100,100,1.82,
"CCSCn1nc(NC(=O)c2cccnc2)cc1C [Compound I-1-242, N-{1-[(Ethylsulphanyl)methyl]-5-methyl-1H-pyrazol-3-yl}nicotinamide]",,,,,"pest or weed control at 500 g/ha (Myzus persicae [1]): 100%; pest or weed control at 6 ppm (Myzus persicae [2]; [4]): 100%; pest or weed control at 30 ppm (Myzus persicae [2]; [5]): 100%; chromatographic logP [3, 6]: 1.49; chromatographic logP [3, 7]: 1.49"
CSCCC(=O)n1nc(NC(=O)c2cccnc2)cc1C [Compound I-1-266],90,100,100,1.87,
CC(C)=CCn1nc(NC(=O)c2cccnc2)cc1C [Compound I-1-239],90,100,100,1.75,
COCCn1nc(N(C)C(=O)c2cccnc2)cc1C [Compound I-1-179],100,,,0.79,
Cc1cccc(Cn2nc(NC(=O)c3cccnc3)cc2C)c1 [Compound I-1-50],90,,100,,
"O=C(Nc1ncn(Cc2ccccc2Cl)n1)c1cccnc1 [Compound I-2-7, N-[1-(2-Chlorobenzyl)-1H-1,2,4-triazol-3-yl]nicotinamide]",,,,,"pest or weed control at 500 g/ha (Myzus persicae [1]): 100%; chromatographic logP ([3]; HPLC on a reversed-phase column (C 18), pH 2.7, values given in the synthesis examples and NMR lists, read-out: HPLC-MS: log P): 1.22; chromatographic logP ([3]; reversed-phase HPLC column (C18), pH 2.7, Table 2, compounds of the formula (I-2), acidic range pH 2.7 or pH 2.3, read-out: log P (acid)): 1.22"
COC(=O)C(C)(C)NC(=O)Cn1nc(NC(=O)c2cncc(F)c2)cc1C [Compound I-1-41],90,,,1.33,
Cc1cc(Cn2nc(NC(=O)c3cccnc3)cc2C)oc(=O)c1 [Compound I-1-154],90,100,100,,
Cc1cc(NC(=O)c2cccnc2)nn1C(=O)NCc1ccccc1Cl [Compound I-1-323],,100,100,2.29,
Cc1cc(NC(=O)c2cccnc2)nn1-c1ccc(Cl)cc1 [Compound I-1-209],,80,100,2.09,
Cc1cc(NC(=O)c2cccnc2)nn1Cn1c(=O)n(C)c(=O)n1C [Compound I-1-145],,,100,0.82,
Cc1cc(N(C)C(=O)c2cccnc2)nn1CC1CC1 [Compound I-1-177],,,100,1.27,
O=C(Nc1ccn(Cc2ccccc2)n1)c1cccnc1 [Compound I-1-84],,100,100,1.52,
